Laboratory results reported in ChEMBL document CHEMBL1201862, “PubChem BioAssay data set” (2004).
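Cells were grown in 96-well plates and exposed to each compound for 48 hours at five concentrations; endpoints were interpolated linearly between bracketing concentrations, or set to the highest concentration if not reached. The concentration for 50% growth inhibition is given as GI50.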 Calls of active or inactive are those of the source. Cut-off read from the data, not from the text of the source: active = GI50 up to about 1.1 µM and inactive = higher.

Legend:
Experiment in all cases: DTP human tumour cell line panel, 48 h
A498 = tested on: A498
CAKI-1 = tested on: CAKI-1
HCC 2998 = tested on: HCC 2998
HT-29 = tested on: HT-29
IGROV-1 = tested on: IGROV-1
K562 = tested on: K562
LOX IMVI = tested on: LOX IMVI
M14 = tested on: M14
MOLT-4 = tested on: MOLT-4
NCI-H460 = tested on: NCI-H460
NCI-H522 = tested on: NCI-H522
OVCAR-3 = tested on: OVCAR-3
OVCAR-4 = tested on: OVCAR-4
OVCAR-5 = tested on: OVCAR-5
SK-MEL-5 = tested on: SK-MEL-5
SK-OV-3 = tested on: SK-OV-3
SN12C = tested on: SN12C
SNB-75 = tested on: SNB-75
SW-620 = tested on: SW-620
TK-10 = tested on: TK-10

Measured: GI50

CC(C)(C)OC(=O)NC(Cc1ccc(OCc2ccccc2)cc1)C(=O)NC(COCc1ccccc1)C(=O)Oc1c(Cl)c(Cl)c(Cl)c(Cl)c1Cl (stereo not given)
inactive: A498 23.1 µM | CAKI-1 19.9 µM | HCC 2998 20.1 µM | HT-29 25.6 µM | IGROV-1 15.8 µM | K562 > 100 µM | LOX IMVI 23.6 µM | M14 20.8 µM | MOLT-4 37.5 µM | NCI-H460 17.6 µM | NCI-H522 22.2 µM | OVCAR-3 14.9 µM | OVCAR-4 26.5 µM | OVCAR-5 25.5 µM | SK-MEL-5 17.3 µM | SK-OV-3 17.1 µM | SN12C 23.3 µM | SNB-75 29.6 µM | SW-620 25.6 µM | TK-10 29.8 µM

C=CC[N+]12CN3CN(CN(C3)C1)C2
inactive: A498 32.8 µM | CAKI-1 20.5 µM | HCC 2998 24 µM | HT-29 17.9 µM | IGROV-1 27.4 µM | K562 19.2 µM | LOX IMVI 27 µM | M14 25.8 µM | MOLT-4 33.4 µM | NCI-H460 24.2 µM | NCI-H522 14.3 µM | OVCAR-3 43.9 µM | OVCAR-4 26.2 µM | OVCAR-5 23.2 µM | SK-MEL-5 36.6 µM | SK-OV-3 > 100 µM | SN12C 23.4 µM | SNB-75 25.1 µM | SW-620 5.94 µM | TK-10 22.6 µM

CSc1nc2nc(C)c(C)nc2c(=O)[nH]1
inactive: A498 > 100 µM | CAKI-1 > 100 µM | HCC 2998 > 100 µM | HT-29 > 100 µM | IGROV-1 > 100 µM | K562 > 100 µM | LOX IMVI > 100 µM | M14 > 100 µM | MOLT-4 51.2 µM | NCI-H460 > 100 µM | NCI-H522 > 100 µM | OVCAR-3 > 100 µM | OVCAR-4 > 100 µM | OVCAR-5 > 100 µM | SK-MEL-5 > 100 µM | SK-OV-3 > 100 µM | SN12C > 100 µM | SNB-75 > 100 µM | SW-620 > 100 µM | TK-10 > 100 µM

O=c1[nH]nc(-c2ccccc2)n1/N=C/c1ccccc1Cl
inactive: A498 30.1 µM | CAKI-1 36.6 µM | HCC 2998 36.2 µM | HT-29 28.9 µM | IGROV-1 21.8 µM | K562 31.3 µM | LOX IMVI 25.1 µM | M14 35.4 µM | MOLT-4 22.4 µM | NCI-H460 13 µM | NCI-H522 18 µM | OVCAR-3 23.8 µM | OVCAR-4 15.2 µM | OVCAR-5 > 100 µM | SK-MEL-5 18.6 µM | SK-OV-3 48.8 µM | SN12C 48.8 µM | SNB-75 36.5 µM | SW-620 50.7 µM | TK-10 75.9 µM

O=C(O)CNS(=O)(=O)c1ccc(NC(=O)c2ccc(F)cc2)cc1
inactive: A498 > 100 µM | CAKI-1 > 100 µM | HCC 2998 > 100 µM | HT-29 > 100 µM | IGROV-1 > 100 µM | K562 > 100 µM | LOX IMVI > 100 µM | M14 > 100 µM | MOLT-4 > 100 µM | NCI-H460 > 100 µM | NCI-H522 > 10 µM | OVCAR-3 > 100 µM | OVCAR-4 > 100 µM | OVCAR-5 > 100 µM | SK-MEL-5 > 100 µM | SK-OV-3 > 100 µM | SN12C > 100 µM | SNB-75 > 100 µM | SW-620 > 100 µM | TK-10 > 100 µM

COc1ccc(OC)c(/C=C/NC=O)c1
inactive: A498 > 100 µM | CAKI-1 > 100 µM | HCC 2998 > 100 µM | HT-29 > 100 µM | IGROV-1 > 100 µM | K562 > 100 µM | LOX IMVI > 100 µM | M14 > 100 µM | MOLT-4 > 100 µM | NCI-H460 > 100 µM | NCI-H522 > 100 µM | OVCAR-3 > 100 µM | OVCAR-4 > 100 µM | OVCAR-5 > 100 µM | SK-MEL-5 > 100 µM | SK-OV-3 > 100 µM | SN12C > 100 µM | SNB-75 > 51.6 µM | SW-620 > 54.5 µM | TK-10 > 100 µM

NC(=O)c1ccccc1NC(=O)C(=O)C(c1cnc2ccc([N+](=O)[O-])cc2n1)[N+](=O)[O-] (stereo not given)
inactive: A498 > 100 µM | CAKI-1 > 100 µM | HCC 2998 > 100 µM | HT-29 > 100 µM | IGROV-1 > 100 µM | K562 > 100 µM | LOX IMVI 40.5 µM | M14 > 100 µM | MOLT-4 46.3 µM | NCI-H460 64.9 µM | NCI-H522 33.3 µM | OVCAR-3 > 100 µM | OVCAR-4 53.6 µM | OVCAR-5 > 100 µM | SK-MEL-5 77.8 µM | SK-OV-3 > 100 µM | SN12C > 100 µM | SNB-75 > 100 µM | SW-620 > 100 µM | TK-10 > 100 µM
